Measurements reported in patent US20050036994A1, “Compounds and methods for downregulating the effects of TGF-beta” (priority 2003, published 2005).

B1: purchased AHSG: purchased AHSG (Sigma) partially purified from human plasma (protein, UniProt P02765 19-300; P02765 341-367, looked up)
Alpha-2-HS-glycoprotein chain … 1: APHGPGLIYRQPNCDDPETEEAALVAIDYINQNLPWGYKHTLNQIDEVKVWPQQPSGELFEIEIDTLETTCHVLDPTPVARCSVRQLKEHAVEGDCDFQLLKLDGKFSVVYAKCDSSPDSAEDVRKVCQDCPLLAPLNDTRVVHAAKAALAAFNAQNNGSNFQLEEISRAQLVPLPPSTYVEFTVSGTDCVAKEATEAAKCNLLAEKQYGFCKATLSEKLGGAEVAVTCMVFQTQPVSSQPQPEGANEAVPTPVVDPDAPPSPPLGAPGLPPAGSPPDSHVL
Alpha-2-HS-glycoprotein chain … 2: TVVQPSVGAAAGPVVPPCPGRIRHFKV

What was measured:
pericellular cathepsin B [1] = biological target: T1, pericellular cathepsin B (Mus musculus, UniProt P10605); assay: Pericellular cathepsin B assay (z-Arg-Arg-AMC) on transfected LLC cells; format: biochemical; conditions: 25 nM inhibitor added to the assay
T1 construct: These cells normally express cathepsin B; endogenous in cells; host or cells: Lewis lung carcinoma (LLC) cells, intact cell suspension, transfected with AHSG or empty vectors (not with cathepsin B)
T1 sequence (P10605 80-333): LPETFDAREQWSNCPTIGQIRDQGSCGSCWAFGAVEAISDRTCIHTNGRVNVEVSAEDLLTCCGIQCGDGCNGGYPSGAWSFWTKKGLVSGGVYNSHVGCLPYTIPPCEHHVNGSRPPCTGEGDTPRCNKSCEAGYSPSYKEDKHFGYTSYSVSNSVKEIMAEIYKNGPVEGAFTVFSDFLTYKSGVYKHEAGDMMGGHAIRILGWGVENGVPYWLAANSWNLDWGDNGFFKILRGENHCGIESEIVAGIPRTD
Description: In this example we used the fluorogenic substrate called z-Arg-Arg-AMC. […] The ability of this substrate to stay outside the cell allowed us to measure the enzymatic activity of pericellular cathepsin B (Hulkower, K. I. et al Eur J Biochem 267:4165 (2000). Many human and mouse cancer cell lines have cathepsin B activity on the cell surface.
To measure the effect of AHSG on the activity of cathepsin B, we expressed AHSG using expression vectors, pAAV-AHSG or pCDNA-AHSG that were used to transfect Lewis lung carcinoma (LLC) cells. These cells normally express cathepsin B (Hulkower, K. I. et al Eur J Biochem 267:4165 (2000)). Thus the addition of the substrate to the cells transfected with a non-specific vector lead to lysis of the peptide and the resulting level of cathepsin B activity was arbitrarily set at 100 (FIG. 7, left column). Cathepsin B activity following transfection with pAAV-AHSG was roughly 25% lower than that in control cells (FIG. 7, second column). Next 25 nM of a known inhibitor of cathepsin B, CA 074 was added to the assay. […] Despite the low transfection efficiency of LLC cells that ranged from 10 to 20% as measured using in situ staining of β-galactosidase activity, the observed reduction of the cathepsin B in the presence of AHSG supports the present invention that expression of AHSG suppresses cathepsin B activity on the cell surface. […]

pericellular cathepsin B [2] = assay: Pericellular cathepsin B assay with partially purified AHSG or concentrated spent media of infected HEK293 cells (FIG. 8); format: biochemical; conditions: for inhibition of pericellular cathepsin B activity: FIG. 8
Description: 50 μl of the cell suspension was added to a black walled 96 well plate (ThermoLabsystems, Part No. 8220, Vantaa, Finland). The appropriate concentration of inhibitors of cathepsin B, purified AHSG or concentrated media were diluted in 5 μl of PAB and the added to the cell suspension in each of the 96 wells. The plate was pre-incubated at 40° C. for 30 min. The reaction was started by adding 50 μl of a 200 μM solution of z-Arg-Arg-AMC (EMD Biosciences Inc, Darmstadt, Germany), a fluorogenic peptide that is lysed by cathhepsin B. This substrate was dissolved in PAB and pre-incubated at 40° C. prior to use. Hydrolytic activity of cathepsin B produces free AMC from the substrate peptide resulting in increased fluorescence. The intensity of fluorescence was measured using ThermoLabsystems Fluoroskan microplate reader with a 355 nm excitation filter and a 420 nm emission filter. The stock solution of z-Arg-Arg-AMC was dissolved in DMSO at the concentration of 10 mM and stored in −80° C. The Cathepsin B specific inhibitors CA-074 and Ac-LVK-CHO (EMD Biosciences Inc., Darmstadt, Germany) were dissolved in H2O at the concentration of 10 mM, aliquoted and stored in −80° C.
HEK 293 cells were subcultured at the cell density of 40% confluence in the morning of the study. […] The next day culture medium was replaced with fresh D-MEM supplemented with 5% FCS and culture for 2 additional days. The culture medium was passed through a filter with the pore size of 0.22 micron and then stored at −80° C. […] A centrifugal filtration unit, NanoSep 100 (Pall Corporation, Ann Arbor, Mich.) were applied to collect the molecular weights lower than 100 kD. The 0.4 ml of the flow through fraction from NanoSep 100 was applied to Nanosep30 and the remaining protein on the filter membrane was re-suspended in 40 μl of PAB (Hank's balanced salt solution without sodium bicarbonate, 0.6 mM MgCl2, 0.6 mM CaCl2, 2 mM 1-cystein and 25 mM PIPES adjusted pH to 7.0) The protein concentration was determined using Bradford reagent (Bio-Rad, Hercules, Calif.). The aliqouts of protein solution was flash frozen by liquid nitrogen and stored in −80° C. prior to use.

Row | Molecule | inhibition of cathepsin B activity (words) (pericellular cathepsin B [1]) | inhibition of cathepsin B activity (words) (pericellular cathepsin B [1]; listed as CA 074) | inhibition of pericellular cathepsin B activity (pericellular cathepsin B [2]) | inhibition of pericellular cathepsin B activity (pericellular cathepsin B [2]; listed as AHSG purchased from Sigma) | amount of protein required for complete inhibition, relative to the concentration of AHSG in the blood of adults (0.3 to 0.6 mg/ml) (pericellular cathepsin B [2]; one of the lots)
1 | CCCNC(=O)[C@H]1O[C@@H]1C(=O)N[C@H](C(=O)N1CCC[C@H]1C(=O)O)[C@@H](C)CC [CA-074] | inhibited cathepsin B activity | expected inhibition of cathepsin B activity | inhibited activity of cathepsin B |  | 
2 | B1 |  |  | inhibited completely the activity of cathepsin B | significant inhibition of pericellular cathepsin B activity | less than 10%
